How the values were obtained:
[1] = test system: human breast cancer cell line (MCF-7); assay: MTT assay, cytotoxicity; format: cell-based; details: MCF-7; for survival percentage (mean ± SEM): 24 hours
Description: (§1) Cancer cell lines were manipulated according to the method described by Sigounas et al.. In this method, the cell lines were grown as adherent monolayers in T75 flasks with Dulbecco's modified Eagle's medium (DMEM) supplemented with 10% Fetal Bovine Serum (FBS), 2 mM L-glutamine, and 1% streptomycin/penicillin. The cells were left to grow in a CO2 incubator at 37°C, 5% CO2, and 95% humidity until their confluence.
(§2) The 3-[4,5-dimethylthiazol-2-yl]-2,5-diphenyltetrazolium bromide (MTT) colorimetric assay was used to examine the sensitivity of cells to tested compounds (as anticancer drugs), as previously described. This assay depends on the production of a purple formazan derivative from the yellow tetrazolium bromide (MTT) by mitochondrial succinate dehydrogenase in viable cells. The percentage of cell survival was calculated as follows: (1) Percentage of survival=O.D.treated cells/O.D.control cells×100.
(§3) For preliminary screening of the cytotoxicity of synthesized compounds 3a-g, cells exposed to DMSO were used as a control. Plotting the relationship between the survival score and the compound concentration and calculating the IC50 (the concentration required to inhibit cell viability by 50%) were performed for each test compound according to Li et al. in comparison with the reference standard anticancer agent, 5-FU.
(§4) The 3-[4,5-dimethylthiazol-2-yl]-2,5-diphenyltetrazolium bromide (MTT) colorimetric assay was used to examine the sensitivity of cells to tested compounds (as anticancer drugs), as previously described by Hussein et al. (2017). This assay depend on the production of a purple formazan derivative from the yellow tetrazolium bromide (MTT) by mitochondrial succinate dehydrogenase in viable cells. Briefly, after harvesting the cells with 0.25% trypsin, the cell lines were suspended in DMEM. Cells were seeded in 96-well microtiter plates at a concentration of 5×10^4 cell/well in a fresh medium and left to attach to the plates for 24 h before treatment with the tested compounds 3a-g. Test compounds were dissolved in dimethyl sulfoxide (DMSO). After 24 hours, cells were incubated with the appropriate concentration ranges of compounds, the wells were diluted to […] with fresh medium and incubation was continued for 24 hours. Three wells were used for each concentration. After 24 hours of treatment, 20 μl of MTT solution (5mg/ml) was added and subsequently the plates were further incubated for 4 hours to allow the viable cells to biotransform the yellow-colored MTT into purple formazan crystals. The optical density (O.D.) of each well was measured spectrophotometrically at […] with an enzyme-linked immunosorbent assay (ELISA) microplate reader (BioTek, EL-800, USA). The percentage of cell survival was calculated as follows: […]

[2] = test system: human liver cancer cell line (HepG2); assay: MTT assay, cytotoxicity; format: cell-based; details: HepG2; for survival percentage (mean ± SEM): 24 hours
Description: as §1, §2, §3, §4

HepG2 cell line = assay: Cell cycle analysis (PI, flow cytometry); format: cell-based, human
Description: Cell cycle analysis was performed to decide if the newly synthesized thienopyrimidine derivatives arrested the cell cycle and at what phase of the cell cycle, the HepG2 and MCF-7 cell lines were arrested. The experiments were performed as previously described by Tolba et al.. HepG2 and MCF-7 cell lines were seeded and incubated with the tested compounds in 6-well plates. After incubation overnight, the cells were washed twice with ice-cold phosphate-buffered saline (PBS), detached by EDTA-trypsinization from the plates, harvested by centrifugation, fixed in ice-cold 70% (v/v) ethanol, and washed with phosphate-buffered saline (PBS, pH 7.2 ± 0.2). The cells were resuspended with 0.1 mg/ml RNase, stained with […] propidium iodide (PI), and analyzed by flow cytometry using a FACSCalibur flow cytometer (BD Biosciences, San Jose, CA). CellQuest software (Becton Dickinson) was used to determine the cell cycle distributions after incubation with 5-FU or tested compounds. Exposure of HepG2 and MCF-7 cell lines to these compounds could interfere with the normal cell cycle distribution.

For `CCOC(=O)Cn1c(SCC(=O)Nc2ccc(C(=O)/C=C\c3cccc([N+](=O)[O-])c3)cc2)nc2sc3c(c2c1=O)CCN(C(=O)OCC)C3` [Compound 3c, Ethyl (Z)-3-(2-Ethoxy-2-oxoethyl)-2-((2-((4-(3-(3-nitrophenyl)acryloyl)phenyl)amino)-2-oxoethyl)thio)-4-oxo-3,5,6,8-tetrahydropyrido[4′,3′:4,5]thieno[2,3-d]pyrimidine-7(4H)-carboxylate], the “survival percentage (mean ± SEM)” value ([1]; 4.8828125 μg/ml) was 149.3 ± 0.082%, the “survival percentage (mean ± SEM)” value ([1]; 9.765625 μg/ml) was 135.4 ± 0.066% and the “survival percentage (mean ± SEM)” value ([1]; 19.53125 μg/ml) was 140.3 ± 0.197%. The “survival percentage (mean ± SEM)” value ([1]; 39.0625 μg/ml) was 132.0 ± 0.136%, the “survival percentage (mean ± SEM)” value ([1]; 78.125 μg/ml) was 121.5 ± 0.183% and the “survival percentage (mean ± SEM)” value ([1]; 156.25 μg/ml) was 110.9 ± 0.063%. For the same molecule, the “survival percentage (mean ± SEM)” value ([1]; 312.5 μg/ml) was 71.1 ± 0.156%, the “survival percentage (mean ± SEM)” value ([1]; 625 μg/ml) was 11.3 ± 0.026% and the “survival percentage (mean ± SEM)” value ([1]; 1250 μg/ml) was 7.4 ± 0.003%. The “survival percentage (mean ± SEM)” value ([1]; 2500 μg/ml) was 6.4 ± 0.003%, the “survival percentage (mean ± SEM)” value ([1]; 5000 μg/ml) was 6.4 ± 0.007% and the “survival percentage (mean ± SEM)” value ([1]; 10000 μg/ml) was 5.9 ± 0.002%. For the same molecule, the “survival percentage (mean ± SEM)” value ([2]; 4.8828125 μg/ml) was 91.5 ± 0.013%, the “survival percentage (mean ± SEM)” value ([2]; 9.765625 μg/ml) was 81.6 ± 0.027% and the “survival percentage (mean ± SEM)” value ([2]; 19.53125 μg/ml) was 69.8 ± 0.027%. The “survival percentage (mean ± SEM)” value ([2]; 39.0625 μg/ml) was 63.0 ± 0.030%, the “survival percentage (mean ± SEM)” value ([2]; 78.125 μg/ml) was 62.4 ± 0.051% and the “survival percentage (mean ± SEM)” value ([2]; 156.25 μg/ml) was 22.1 ± 0.011%. For the same molecule, the “survival percentage (mean ± SEM)” value ([2]; 312.5 μg/ml) was 21.1 ± 0.004%, the “survival percentage (mean ± SEM)” value ([2]; 625 μg/ml) was 20.6 ± 0.003% and the “survival percentage (mean ± SEM)” value ([2]; 1250 μg/ml) was 20.1 ± 0.004%. The “survival percentage (mean ± SEM)” value ([2]; 2500 μg/ml) was 19.0 ± 0.002%, the “survival percentage (mean ± SEM)” value ([2]; 5000 μg/ml) was 18.8 ± 0.001% and the “survival percentage (mean ± SEM)” value ([2]; 10000 μg/ml) was 18.0 ± 0.001%. The “G1 phase cell population” value (HepG2 cell line) was “significant increase”, the “%DIP G1” value (HepG2 cell line; flow cytometry panel) was 55.32% and the melting point was 189 to 190 °C.

With `CCOCc1nc2sc3c(c2c(=O)n1CC(=O)Nc1ccc(C(=O)/C=C\c2cccc([N+](=O)[O-])c2)cc1)CCN(C(=O)OCC)C3` [Compound 3f, Ethyl (Z)-2-(Ethoxymethyl)-3-(2-((4-(3-(3-nitrophenyl)acryloyl)phenyl)amino)-2-oxoethyl)-4-oxo-3,5,6,8-tetrahydropyrido[4′,3′:4,5]thieno[2,3-d]pyrimidine-7(4H)-carboxylate] the “cytotoxic activity (in words)” value [1] was “lowest cytotoxic activity”, the “survival percentage (mean ± SEM)” value ([1]; 4.8828125 μg/ml) was 149.7 ± 0.082% and the “survival percentage (mean ± SEM)” value ([1]; 9.765625 μg/ml) was 132.2 ± 0.214%. The “survival percentage (mean ± SEM)” value ([1]; 19.53125 μg/ml) was 127.7 ± 0.180%, the “survival percentage (mean ± SEM)” value ([1]; 39.0625 μg/ml) was 122.6 ± 0.121% and the “survival percentage (mean ± SEM)” value ([1]; 78.125 μg/ml) was 120.2 ± 0.150%. For the same molecule, the “survival percentage (mean ± SEM)” value ([1]; 156.25 μg/ml) was 119.7 ± 0.182%, the “survival percentage (mean ± SEM)” value ([1]; 312.5 μg/ml) was 92.0 ± 0.141% and the “survival percentage (mean ± SEM)” value ([1]; 625 μg/ml) was 67.1 ± 0.086%. For the same molecule, the “survival percentage (mean ± SEM)” value ([1]; 1250 μg/ml) was 47.5 ± 0.181%, the “survival percentage (mean ± SEM)” value ([1]; 2500 μg/ml) was 6.2 ± 0.004% and the “survival percentage (mean ± SEM)” value ([1]; 5000 μg/ml) was 5.1 ± 0.003%. For the same molecule, the “survival percentage (mean ± SEM)” value ([1]; 10000 μg/ml) was 4.6 ± 0.002%, the “cytotoxic activity (in words)” value [2] was “lowest cytotoxic activity” and the “survival percentage (mean ± SEM)” value ([2]; 4.8828125 μg/ml) was 149.7 ± 0.200%. The “survival percentage (mean ± SEM)” value ([2]; 9.765625 μg/ml) was 149.1 ± 0.106%, the “survival percentage (mean ± SEM)” value ([2]; 19.53125 μg/ml) was 144.7 ± 0.140% and the “survival percentage (mean ± SEM)” value ([2]; 39.0625 μg/ml) was 119.1 ± 0.122%. The “survival percentage (mean ± SEM)” value ([2]; 78.125 μg/ml) was 115.9 ± 0.157%, the “survival percentage (mean ± SEM)” value ([2]; 156.25 μg/ml) was 112.0 ± 0.460% and the “survival percentage (mean ± SEM)” value ([2]; 312.5 μg/ml) was 77.8 ± 0.071%. For the same molecule, the “survival percentage (mean ± SEM)” value ([2]; 625 μg/ml) was 15.3 ± 0.005%, the “survival percentage (mean ± SEM)” value ([2]; 1250 μg/ml) was 12.6 ± 0.019% and the “survival percentage (mean ± SEM)” value ([2]; 2500 μg/ml) was 11.7 ± 0.009%. The “survival percentage (mean ± SEM)” value ([2]; 5000 μg/ml) was 11.6 ± 0.002%, the “survival percentage (mean ± SEM)” value ([2]; 10000 μg/ml) was 10.7 ± 0.004% and the melting point was 178 to 179 °C.

With `CCOC(=O)N1CCc2c(sc3nc(SCC(=O)Nc4ccc(C(=O)/C=C\c5cc(OC)c(OC)c(OC)c5)cc4)[nH]c(=O)c23)C1` [Compound 3e, Ethyl (Z)-4-Oxo-2-((2-oxo-2-((4-(3-(3,4,5-trimethoxyphenyl)acryloyl)phenyl)amino)ethyl)-thio)-3,5,6,8-tetrahydropyrido[4′,3′:4,5]thieno[2,3-d]pyrimidine-7(4H)-carboxylate] the “survival percentage (mean ± SEM)” value ([1]; 4.8828125 μg/ml) was 147.1 ± 0.051%, the “survival percentage (mean ± SEM)” value ([1]; 9.765625 μg/ml) was 131.6 ± 0.132% and the “survival percentage (mean ± SEM)” value ([1]; 19.53125 μg/ml) was 123.4 ± 0.070%. The “survival percentage (mean ± SEM)” value ([1]; 39.0625 μg/ml) was 129.1 ± 0.033%, the “survival percentage (mean ± SEM)” value ([1]; 78.125 μg/ml) was 109.2 ± 0.084% and the “survival percentage (mean ± SEM)” value ([1]; 156.25 μg/ml) was 104.2 ± 0.026%. The “survival percentage (mean ± SEM)” value ([1]; 312.5 μg/ml) was 61.5 ± 0.112%, the “survival percentage (mean ± SEM)” value ([1]; 625 μg/ml) was 38.0 ± 0.030% and the “survival percentage (mean ± SEM)” value ([1]; 1250 μg/ml) was 27.8 ± 0.021%. The “survival percentage (mean ± SEM)” value ([1]; 2500 μg/ml) was 17.9 ± 0.002%, the “survival percentage (mean ± SEM)” value ([1]; 5000 μg/ml) was 16.0 ± 0.000% and the “survival percentage (mean ± SEM)” value ([1]; 10000 μg/ml) was 15.9 ± 0.002%. The “survival percentage (mean ± SEM)” value ([2]; 4.8828125 μg/ml) was 127.5 ± 0.033%, the “survival percentage (mean ± SEM)” value ([2]; 9.765625 μg/ml) was 114.3 ± 0.141% and the “survival percentage (mean ± SEM)” value ([2]; 19.53125 μg/ml) was 91.9 ± 0.060%. The “survival percentage (mean ± SEM)” value ([2]; 39.0625 μg/ml) was 45.1 ± 0.072%, the “survival percentage (mean ± SEM)” value ([2]; 78.125 μg/ml) was 21.4 ± 0.073% and the “survival percentage (mean ± SEM)” value ([2]; 156.25 μg/ml) was 21.1± 0.012%. The “survival percentage (mean ± SEM)” value ([2]; 312.5 μg/ml) was 19.8 ± 0.005%, the “survival percentage (mean ± SEM)” value ([2]; 625 μg/ml) was 18.9 ± 0.001% and the “survival percentage (mean ± SEM)” value ([2]; 1250 μg/ml) was 18.4 ± 0.003%. For the same molecule, the “survival percentage (mean ± SEM)” value ([2]; 2500 μg/ml) was 17.4 ± 0.002%, the “survival percentage (mean ± SEM)” value ([2]; 5000 μg/ml) was 16.8 ± 0.003% and the “survival percentage (mean ± SEM)” value ([2]; 10000 μg/ml) was 14.1 ± 0.002%. For the same molecule, the “cell population in G2/M compared with control cells” value (HepG2 cell line) was “substantial increase”, the “cell population in pre-G1 phases compared with control cells” value (HepG2 cell line) was “significant increase” and the melting point was 167 to 168 °C.
